{"source": "patent US20200392150A1", "about": "“Diaryl-B-Lactam Compound and Preparation Method and Pharmaceutical Use Thereof” (Fudan University, priority 2016, published 2020)", "key": {"[1]": {"target": "T1, Pig brain tubulin (Sus scrofa, UniProt P02550+P02554)", "T1 construct": "purchased; host or cells: pig brain", "T1 sequence (P02554 whole entry)": "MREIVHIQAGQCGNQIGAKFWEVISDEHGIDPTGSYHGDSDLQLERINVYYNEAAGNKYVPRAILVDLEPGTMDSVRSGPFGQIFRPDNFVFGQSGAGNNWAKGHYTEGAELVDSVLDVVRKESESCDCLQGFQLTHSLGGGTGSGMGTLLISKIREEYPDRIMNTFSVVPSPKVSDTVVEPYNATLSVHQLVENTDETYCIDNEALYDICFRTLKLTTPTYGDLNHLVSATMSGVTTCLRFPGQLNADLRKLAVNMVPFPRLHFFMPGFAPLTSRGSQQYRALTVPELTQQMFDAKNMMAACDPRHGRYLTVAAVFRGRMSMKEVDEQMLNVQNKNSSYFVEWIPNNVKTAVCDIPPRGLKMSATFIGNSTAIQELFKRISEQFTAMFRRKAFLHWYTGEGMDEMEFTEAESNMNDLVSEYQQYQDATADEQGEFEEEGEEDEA", "T1 sequence (P02550 whole entry)": "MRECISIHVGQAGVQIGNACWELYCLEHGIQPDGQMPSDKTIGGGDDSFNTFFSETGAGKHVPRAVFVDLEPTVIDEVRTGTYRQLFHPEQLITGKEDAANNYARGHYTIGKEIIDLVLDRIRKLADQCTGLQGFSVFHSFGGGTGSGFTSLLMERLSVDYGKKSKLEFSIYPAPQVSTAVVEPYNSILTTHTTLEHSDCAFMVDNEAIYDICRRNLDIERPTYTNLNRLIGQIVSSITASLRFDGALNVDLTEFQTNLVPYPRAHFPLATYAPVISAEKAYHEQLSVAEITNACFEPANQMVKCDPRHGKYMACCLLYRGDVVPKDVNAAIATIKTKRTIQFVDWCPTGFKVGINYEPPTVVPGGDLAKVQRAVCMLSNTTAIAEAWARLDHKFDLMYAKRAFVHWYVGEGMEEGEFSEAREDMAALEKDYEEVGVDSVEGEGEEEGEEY", "assay": "In vitro tubulin polymerization assay", "assay_type": "biochemical", "conditions": "pig brain tubulin, absorbance 340 nm, 20 min, 37° C.; read-out: IC50 disruption of tubulin assembly", "experimental": "In vitro tubulin polymerization assay Pig brain tubulin was obtained commercially and stored in aliquots at −70° C. […] The absorbance of wavelength at 340 nm was detected every 1 min for 20 min by Spectra Max 190 spectrophotometer (Molecular Device) at 37° C. The results were indicated as mean values from three independent determinations."}, "[2]": {"tested_on": "tubulin in Hela cells", "assay": "Immunoblotting analysis of polymerized/depolymerized tubulin", "assay_type": "cell-based, human", "conditions": "6 h", "experimental": "After being treated with diluent (0.2% DMSO), tested compound, CA-4 or PTX for 6 h, Hela cells were lysed with microtubulestabilizing buffer, containing 100 mM PIPES, pH 6.8, 1 mM MgCl2, 2 mM EGTA, 0.5% NP-40, 2 M glycerol, 5 μM PTX and protease inhibitors cocktail (Roche), and the lysate was centrifuged at 15,000 rpm for 15 min. Supernatant containing depolymerized tubulin was carefully collected, whereas pellet (polymerized tubulin) was further dissolved in SDS-lysis buffer (Beyotime, China). Equal amounts of supernatant and dissolved pellet were subjected to immunoblotting analysis as described above using atubulin antibody (Proteintech)."}, "[3]": {"tested_on": "tubulin in SKOV-3 cells", "assay": "Immunofluorescent analysis of tubulin morphology", "assay_type": "cell-based, human", "conditions": "24 h", "experimental": "After treatment with diluent (0.2% DMSO) or tested compounds at indicated concentrations for 24 h, SKOV-3 cells were fixed with methanol, permeabilized with 0.1% Triton X-100 in PBS and blocked by goat serum. Then the cells were incubated with a-tubulin antibody at 4° C. overnight, followed by incubation with Alexa 488 labeled secondary antibody (Jackson ImmunoResearch) at RT for 1 h. After being stained with DAPI, cells were examined and photographed with a Leica SP5 co-focal fluorescence microscope."}, "[4]": {"tested_on": "MDA-MB-231 cells", "assay": "Colony formation assay", "assay_type": "cell-based, human", "conditions": "48 h treatment, 7-10 days growth", "experimental": "1000 MDA-MB-231 cells per well were seeded into 6-well plate at a single cell density and were cultured at 37° C. for 48 h. After being treated with indicated concentrations of 69, 70 and 97, CA-4 as positive control, or diluent (0.2% DMSO) as negative control for 48 h, the agents containing medium was replaced by fresh medium to allow cell growth for additional 7-10 days. Then the cells were fixed with methanol and stained with gentian violet for 30 min.\nThe number of colonies which consisted of more than 50 cells were counted. The results were indicated as mean values from three independent determinations."}, "[5]": {"tested_on": "Hela cells", "assay": "Cell cycle analysis", "assay_type": "cell-based, human", "conditions": "24 h", "experimental": "2*10^5 Hela cells per well were seeded into six-well plate and allowed to adhere overnight at 37° C. After treatment with indicated concentrations of 69, 70 and 97, CA-4 as positive control or diluent (0.2% DMSO) as negative control for 24 h, cells were harvested, washed twice with PBS and fixed with 75% ethanol at −20° C. overnight. Then cells were stained with propidium iodide dye (BD Biosciences) for 15 min in dark conditions at room temperature, followed by subjected to flow cytometry (Cytomics FC 500MPL, Beckman Coulter) detection. The results were analyzed by Multicycle AV (for Windows, version 320) software and indicated as mean values from three independent determinations."}, "[6]": {"tested_on": "cells", "assay": "Cell apoptosis analysis (Annexin V/PI flow cytometry)", "assay_type": "cell-based", "conditions": "48 h", "experimental": "Cell apoptosis was detected using FITC Annexin V Apoptosis Detection Kit (BD Biosciences) according to manufacturer's instructions. Briefly, cells were incubated with indicated concentrations of 69, 70 and 97, CA-4 as positive control or diluent (0.2% DMSO) as negative control for 48 h. Then the cells were harvested, washed twice with PBS, and re-suspended in binding buffer. After being stained with Annexin-V and PI for 15 min in the dark place, cells were subjected to flow cytometry (Cytomics FC 500 MPL, Beckman Coulter) analysis. The results were indicated as mean values from three independent determinations."}, "[7]": {"tested_on": "Bax, p53 and cleaved-PARP in HeLa cells", "assay": "Expression level of apoptosis associated proteins", "assay_type": "cell-based, human", "conditions": "western blotting and qPCR", "experimental": "A. Western blotting: After being treated with candidate compound, cells were harvested and lysed. Then, the lysate was isolated by ultracentrifuge and quantified by BCA assay according to the protocol. After being denatured, equivalent protein of each sample was separated by SDSPAGE gel and wet-transferred onto 0.22 μm nitrocellulose membrane. After being blocked by PBS containing 5% skim milk, the membrane was incubated with primary antibody at 4° C. overnight and secondary antibody at room temperature for 2 h and then visualized by enhanced chemiluminescence kit (Thermo Fisher, USA), sequentially.\nB. Quantitative PCR assay: HeLa cells were treated with 69, 70 or 97. The expression level of mRNA of target proteins was tested with qPCR kit (Takara)."}, "[8]": {"tested_on": "KM mice", "assay": "Acute toxicity assay", "assay_type": "in vivo", "conditions": "single i.p. injection", "experimental": "KM mice were housed individually in a specific pathogen free facility. Groups of mice (n=10 per group, half male and half female) were injected intraperitoneally once with various dosages of 69 (95, 70, 50, 35, 25 mg/kg), 70 (500, 425, 350, 275, 200 mg/kg), 97 (275, 200, 150, 125 and 100 mg/kg) or vehicle (8.3% cremohorp EL and 8.3% alcohol in PBS) as negative control, respectively. 69, 70 and 97 was dissolved in cremeohore EL and alcohol mixture (1:1, v/v) and further diluted with PBS (1:5, v/v). The death of mice were monitored daily and recorded up to 14 days after injection."}}, "note": "“Also recorded” adds a separate entry of the source.", "data": [{"smiles": "COc1ccc([C@H]2[C@H](C)C(=O)N2c2cc(OC)c(OC)c(OC)c2)cc1O", "note": "[Compound 97, (3S,4R)-4-(3-hydroxy-4-methoxyphenyl)-3-methyl-1-(3,4,5-trimethoxyphenyl)azetidin-2-one]", "values": [{"measurement": "IC50", "setting": "[1]", "result": 1600, "unit": "nM"}, {"measurement": "polymerized tubulin (immunoblotting)", "setting": "[2]", "result": "significantly inhibit tubulin aggregation; also recorded: dramatically reduction of polymerized tubulin"}, {"measurement": "tubulin assembly (immunofluorescence)", "setting": "[3]", "result": "significantly inhibit tubulin aggregation; also recorded: strongly inhibit tubulin assembly"}, {"measurement": "colony formation", "setting": "[4]", "result": "significantly inhibit the formation of colonies; also recorded: dose-dependently reduced"}, {"measurement": "cell cycle arrest (G2/M, mitotic arrest)", "setting": "[5]", "result": "significantly arrest cells in the G2/M phase; also recorded: significantly induce cellular mitotic arrest"}, {"measurement": "cellular apoptosis", "setting": "[6]", "result": "significantly promote apoptosis; also recorded: significantly induce cellular apoptosis"}, {"measurement": "expression of Bax, p53 and cleaved-PARP", "setting": "[7]", "result": "significantly promote the expression of the proapoptotic protein Bax, the tumor suppressor gene p53, and the cleaved DNA repair enzyme; also recorded: significantly induce the expression of Bax, p53 and cleaved-PARP"}, {"measurement": "No. of dead mice 5-14 days", "setting": "[8]; 100 mg/kg", "result": 0}, {"measurement": "No. of dead mice 1 day", "setting": "[8]; 100 mg/kg", "result": 0}, {"measurement": "No. of dead mice 2 days", "setting": "[8]; 100 mg/kg", "result": 0}, {"measurement": "No. of dead mice 3 days", "setting": "[8]; 100 mg/kg", "result": 1}, {"measurement": "No. of dead mice 4 days", "setting": "[8]; 100 mg/kg", "result": 0}, {"measurement": "Survival (%) on day 14", "setting": "[8]; 100 mg/kg", "result": 90, "unit": "%"}, {"measurement": "Total death", "setting": "[8]; 100 mg/kg", "result": 1}, {"measurement": "No. of dead mice 5-14 days", "setting": "[8]; 125 mg/kg", "result": 0}, {"measurement": "No. of dead mice 1 day", "setting": "[8]; 125 mg/kg", "result": 0}, {"measurement": "No. of dead mice 2 days", "setting": "[8]; 125 mg/kg", "result": 2}, {"measurement": "No. of dead mice 3 days", "setting": "[8]; 125 mg/kg", "result": 1}, {"measurement": "No. of dead mice 4 days", "setting": "[8]; 125 mg/kg", "result": 0}, {"measurement": "Survival (%) on day 14", "setting": "[8]; 125 mg/kg", "result": 70, "unit": "%"}, {"measurement": "Total death", "setting": "[8]; 125 mg/kg", "result": 3}, {"measurement": "No. of dead mice 5-14 days", "setting": "[8]; 150 mg/kg", "result": 0}, {"measurement": "No. of dead mice 1 day", "setting": "[8]; 150 mg/kg", "result": 2}, {"measurement": "No. of dead mice 2 days", "setting": "[8]; 150 mg/kg", "result": 4}, {"measurement": "No. of dead mice 3 days", "setting": "[8]; 150 mg/kg", "result": 0}, {"measurement": "No. of dead mice 4 days", "setting": "[8]; 150 mg/kg", "result": 0}, {"measurement": "Survival (%) on day 14", "setting": "[8]; 150 mg/kg", "result": 40, "unit": "%"}, {"measurement": "Total death", "setting": "[8]; 150 mg/kg", "result": 6}, {"measurement": "No. of dead mice 5-14 days", "setting": "[8]; 200 mg/kg", "result": 0}, {"measurement": "No. of dead mice 1 day", "setting": "[8]; 200 mg/kg", "result": 1}, {"measurement": "No. of dead mice 2 days", "setting": "[8]; 200 mg/kg", "result": 4}, {"measurement": "No. of dead mice 3 days", "setting": "[8]; 200 mg/kg", "result": 2}, {"measurement": "No. of dead mice 4 days", "setting": "[8]; 200 mg/kg", "result": 0}, {"measurement": "Survival (%) on day 14", "setting": "[8]; 200 mg/kg", "result": 30, "unit": "%"}, {"measurement": "Total death", "setting": "[8]; 200 mg/kg", "result": 7}, {"measurement": "No. of dead mice 5-14 days", "setting": "[8]; 275 mg/kg", "result": 0}, {"measurement": "No. of dead mice 1 day", "setting": "[8]; 275 mg/kg", "result": 2}, {"measurement": "No. of dead mice 2 days", "setting": "[8]; 275 mg/kg", "result": 4}, {"measurement": "No. of dead mice 3 days", "setting": "[8]; 275 mg/kg", "result": 2}, {"measurement": "No. of dead mice 4 days", "setting": "[8]; 275 mg/kg", "result": 1}, {"measurement": "Survival (%) on day 14", "setting": "[8]; 275 mg/kg", "result": 10, "unit": "%"}, {"measurement": "Total death", "setting": "[8]; 275 mg/kg", "result": 9}]}]}
